Read-outs that look alike come from different tables or passages of the source.
What was measured:
Rhesus PDE2A3 = Rhesus PDE2A3 (Macaca mulatta, UniProt B3VTJ2); assay: PDE2 fluorescence polarization (IMAP FP) inhibition assay, rhesus PDE2A3; format: biochemical, rhesus macaque
P-glycoprotein (P-gp) = P-glycoprotein (P-gp) (Homo sapiens (Human), UniProt P08183); assay: P-gp transport, experimental BA/AB ratio, human; format: in vitro ADME; settings: LLC-PK1, 1 μM substrate concentration
Description: (§1) See Doan et al. “Passive permeability and P-glycoprotein-mediated efflux differentiate central nervous system (CNS) and non-CNS marketed drugs”, J. Pharm. Exper. […] Desirable human BA/AB ratio is less than 2.0. […] See, for example, Desai, et al. Integration of in Silico and in Vitro Tools for Scaffold Optimization during Drug Discovery: Predicting P-glycoprotein Efflux” Mol. Pharmac.

human PDE2A1 = human PDE2A1 (Homo sapiens (Human), UniProt O00408); assay: PDE2 IMAP FP inhibition assay, human PDE2A1 (selectivity panel format); format: biochemical
Procedure, shortened: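 IMAP fluorescence polarization assay; substrate 50 nM FAM-cAMP with 1000 nM cGMP, enzyme at ~20% conversion, in 10 mM Tris pH 7.2, 10 mM MgCl2, 1 mM DTT, 0.01% Tween-20. 60 min room temperature, stopped with IMAP binding reagent, 1 h, then parallel/perpendicular fluorescence read.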

[1] = target: P-glycoprotein (P-gp, rat Mdr1a) (Rattus norvegicus, UniProt Q6PSM0); assay: P-gp transport, experimental BA/AB ratio, rat LLC-Mdr1a; format: in vitro ADME; settings: LLC-PK1; rat LLC-Mdrla; 1 μM substrate concentration
Description: as §1

[2] = Lab B, read-out: Rhesus PDE2 Ki (nM) - Lab B
[3] = Lab B, read-out: Human PDE2 Ki (nM) - Lab B
[4] = Rhesus PDE2 Ki (nM) - Lab B, Lab B
[5] = Lab A, read-out: Rhesus PDE2 Ki (nM) - Lab A
[6] = Lab A, read-out: Human PDE2 Ki (nM) - Lab A

P-glycoprotein (P-gp), sequence (P08183 whole entry): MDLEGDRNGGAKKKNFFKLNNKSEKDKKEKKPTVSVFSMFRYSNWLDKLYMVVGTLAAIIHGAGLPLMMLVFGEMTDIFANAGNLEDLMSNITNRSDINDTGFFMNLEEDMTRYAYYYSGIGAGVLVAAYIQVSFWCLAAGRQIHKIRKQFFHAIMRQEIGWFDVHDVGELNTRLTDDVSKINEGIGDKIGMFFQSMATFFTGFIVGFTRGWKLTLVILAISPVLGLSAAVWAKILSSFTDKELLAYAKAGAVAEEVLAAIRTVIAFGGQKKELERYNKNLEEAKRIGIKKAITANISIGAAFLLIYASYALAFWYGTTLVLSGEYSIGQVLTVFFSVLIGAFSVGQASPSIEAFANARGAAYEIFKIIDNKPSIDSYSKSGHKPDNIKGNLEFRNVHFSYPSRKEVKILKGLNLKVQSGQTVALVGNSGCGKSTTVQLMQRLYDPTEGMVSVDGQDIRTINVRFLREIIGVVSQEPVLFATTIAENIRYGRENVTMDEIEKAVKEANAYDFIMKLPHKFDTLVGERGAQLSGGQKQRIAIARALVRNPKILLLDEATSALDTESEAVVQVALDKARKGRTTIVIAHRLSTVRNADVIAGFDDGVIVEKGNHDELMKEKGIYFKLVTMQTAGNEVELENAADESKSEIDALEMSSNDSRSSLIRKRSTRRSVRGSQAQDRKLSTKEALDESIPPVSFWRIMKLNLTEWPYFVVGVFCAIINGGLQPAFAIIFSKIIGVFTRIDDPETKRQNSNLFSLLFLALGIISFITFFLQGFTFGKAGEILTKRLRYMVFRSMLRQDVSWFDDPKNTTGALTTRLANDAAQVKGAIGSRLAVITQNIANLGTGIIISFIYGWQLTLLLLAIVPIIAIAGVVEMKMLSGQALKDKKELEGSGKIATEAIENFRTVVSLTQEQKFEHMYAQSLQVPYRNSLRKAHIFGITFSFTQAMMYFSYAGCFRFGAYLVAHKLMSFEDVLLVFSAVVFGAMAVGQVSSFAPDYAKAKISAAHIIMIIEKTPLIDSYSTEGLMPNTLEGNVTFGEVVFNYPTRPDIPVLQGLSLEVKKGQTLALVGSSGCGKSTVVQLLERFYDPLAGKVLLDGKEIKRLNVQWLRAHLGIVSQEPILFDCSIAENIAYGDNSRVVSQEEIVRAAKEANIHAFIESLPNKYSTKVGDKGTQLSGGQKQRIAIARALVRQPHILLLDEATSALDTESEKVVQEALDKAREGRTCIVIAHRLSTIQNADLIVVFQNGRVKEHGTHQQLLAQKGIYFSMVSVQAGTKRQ
P-glycoprotein (P-gp, rat Mdr1a), sequence (Q6PSM0 1-1272): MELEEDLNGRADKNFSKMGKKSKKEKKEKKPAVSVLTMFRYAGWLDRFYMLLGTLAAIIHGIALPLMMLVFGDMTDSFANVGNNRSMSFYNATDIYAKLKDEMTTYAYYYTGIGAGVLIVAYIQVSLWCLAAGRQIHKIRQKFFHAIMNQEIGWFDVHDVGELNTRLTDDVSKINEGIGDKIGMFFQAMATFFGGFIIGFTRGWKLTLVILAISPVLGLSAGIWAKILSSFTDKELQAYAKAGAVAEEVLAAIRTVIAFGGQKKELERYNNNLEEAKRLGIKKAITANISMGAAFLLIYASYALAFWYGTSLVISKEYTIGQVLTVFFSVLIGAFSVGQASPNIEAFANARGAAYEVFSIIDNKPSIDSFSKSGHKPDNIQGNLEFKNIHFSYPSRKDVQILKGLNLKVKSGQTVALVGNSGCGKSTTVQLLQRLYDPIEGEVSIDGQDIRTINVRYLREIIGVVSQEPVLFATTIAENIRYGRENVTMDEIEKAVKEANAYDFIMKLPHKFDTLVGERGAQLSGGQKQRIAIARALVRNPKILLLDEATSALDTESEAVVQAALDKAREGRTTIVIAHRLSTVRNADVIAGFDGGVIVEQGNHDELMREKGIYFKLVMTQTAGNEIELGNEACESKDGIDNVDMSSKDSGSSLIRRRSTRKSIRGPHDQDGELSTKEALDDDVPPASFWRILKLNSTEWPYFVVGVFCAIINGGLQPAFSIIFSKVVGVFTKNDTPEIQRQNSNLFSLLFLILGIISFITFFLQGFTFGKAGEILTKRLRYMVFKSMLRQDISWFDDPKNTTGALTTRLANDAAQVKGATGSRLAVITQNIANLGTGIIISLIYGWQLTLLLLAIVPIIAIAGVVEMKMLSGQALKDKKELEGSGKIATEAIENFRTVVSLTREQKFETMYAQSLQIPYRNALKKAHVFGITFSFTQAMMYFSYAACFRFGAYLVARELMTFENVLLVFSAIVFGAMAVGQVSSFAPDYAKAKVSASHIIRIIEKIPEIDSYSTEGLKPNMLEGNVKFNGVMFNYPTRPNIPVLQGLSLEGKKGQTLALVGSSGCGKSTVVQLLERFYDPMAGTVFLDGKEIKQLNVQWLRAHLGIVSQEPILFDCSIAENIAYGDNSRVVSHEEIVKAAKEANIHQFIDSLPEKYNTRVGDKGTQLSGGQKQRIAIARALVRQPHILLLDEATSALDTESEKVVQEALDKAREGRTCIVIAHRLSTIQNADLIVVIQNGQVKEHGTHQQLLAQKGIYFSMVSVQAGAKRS
human PDE2A1, sequence (O00408 other isoform, or with tags, fused parts or gaps): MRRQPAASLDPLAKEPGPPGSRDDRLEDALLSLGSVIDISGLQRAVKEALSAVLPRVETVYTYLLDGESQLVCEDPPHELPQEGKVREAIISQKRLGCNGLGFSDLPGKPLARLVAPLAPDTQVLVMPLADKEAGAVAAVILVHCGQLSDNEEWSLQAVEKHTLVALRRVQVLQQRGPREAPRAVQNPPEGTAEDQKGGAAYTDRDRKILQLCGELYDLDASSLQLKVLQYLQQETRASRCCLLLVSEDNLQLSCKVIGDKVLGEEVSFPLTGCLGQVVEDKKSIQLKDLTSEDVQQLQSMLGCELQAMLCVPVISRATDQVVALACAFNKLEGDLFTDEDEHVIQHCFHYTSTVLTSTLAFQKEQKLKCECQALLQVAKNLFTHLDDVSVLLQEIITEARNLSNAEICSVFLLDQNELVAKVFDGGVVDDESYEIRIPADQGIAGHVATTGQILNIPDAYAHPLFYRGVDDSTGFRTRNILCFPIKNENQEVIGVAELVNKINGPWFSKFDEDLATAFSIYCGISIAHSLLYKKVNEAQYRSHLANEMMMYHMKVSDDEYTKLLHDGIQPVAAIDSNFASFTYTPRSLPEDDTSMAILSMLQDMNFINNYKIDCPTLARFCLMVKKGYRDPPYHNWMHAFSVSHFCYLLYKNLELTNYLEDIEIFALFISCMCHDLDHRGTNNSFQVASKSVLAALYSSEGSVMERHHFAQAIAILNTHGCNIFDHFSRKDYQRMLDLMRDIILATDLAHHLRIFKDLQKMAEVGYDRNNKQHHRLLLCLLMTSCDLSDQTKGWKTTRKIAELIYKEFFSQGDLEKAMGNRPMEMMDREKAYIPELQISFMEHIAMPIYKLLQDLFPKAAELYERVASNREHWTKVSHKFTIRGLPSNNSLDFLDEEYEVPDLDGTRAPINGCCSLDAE
Rhesus PDE2A3, sequence (B3VTJ2 1-941): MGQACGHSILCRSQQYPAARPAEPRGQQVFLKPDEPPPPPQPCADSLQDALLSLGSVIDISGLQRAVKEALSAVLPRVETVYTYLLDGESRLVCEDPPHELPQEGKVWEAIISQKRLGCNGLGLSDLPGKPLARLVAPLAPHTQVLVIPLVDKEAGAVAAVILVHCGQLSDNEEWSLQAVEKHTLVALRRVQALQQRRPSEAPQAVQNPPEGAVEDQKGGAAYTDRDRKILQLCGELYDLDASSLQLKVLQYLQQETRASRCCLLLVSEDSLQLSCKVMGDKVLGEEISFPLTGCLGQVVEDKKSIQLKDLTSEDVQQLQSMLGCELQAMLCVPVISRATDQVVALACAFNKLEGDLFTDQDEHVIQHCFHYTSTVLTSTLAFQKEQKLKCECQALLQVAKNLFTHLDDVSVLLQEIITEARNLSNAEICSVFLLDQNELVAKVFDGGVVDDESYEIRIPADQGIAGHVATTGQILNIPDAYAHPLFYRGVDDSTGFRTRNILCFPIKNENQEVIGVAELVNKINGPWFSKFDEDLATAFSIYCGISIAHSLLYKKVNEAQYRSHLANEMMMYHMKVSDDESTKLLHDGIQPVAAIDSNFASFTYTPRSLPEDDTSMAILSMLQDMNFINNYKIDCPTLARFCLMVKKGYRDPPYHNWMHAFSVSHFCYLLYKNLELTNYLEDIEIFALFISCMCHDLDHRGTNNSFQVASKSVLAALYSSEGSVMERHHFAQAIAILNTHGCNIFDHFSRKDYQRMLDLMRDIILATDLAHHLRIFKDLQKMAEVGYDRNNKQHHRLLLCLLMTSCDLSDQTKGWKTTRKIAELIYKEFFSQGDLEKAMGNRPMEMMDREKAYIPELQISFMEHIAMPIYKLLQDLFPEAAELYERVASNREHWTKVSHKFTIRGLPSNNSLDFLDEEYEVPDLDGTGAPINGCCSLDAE

Structure (SMILES)	Ki (Rhesus PDE2A3; [2])	efflux ratio at 1 μM (P-glycoprotein (P-gp))	Ki (human PDE2A1; [3])	efflux ratio at 1 μM [1]	Ki (Rhesus PDE2A3; [5])	Ki (human PDE2A1; [6])	Ki (Rhesus PDE2A3; [4])
CCC(C)(NC(=O)c1cc(=O)[nH]c(N(C)C)n1)c1ccc(C(F)(F)F)cc1F (single isomer, unassigned) [Example 130, (R)- or (S)-2-(dimethylamino)-N-{1-[2-fluoro-4-(trifluoromethyl)phenyl]-1-methylpropyl}-6-oxo-1,6-dihydro-pyrimidine-4-carboxamide]	1.2 nM	0.6	0.89 nM	1.3	–	–	–
CC(C)C(C)(NC(=O)c1cc(=O)[nH]c(N(C)C)n1)c1ccc(S(F)(F)(F)(F)F)cc1 (single isomer, unassigned) [Example 173, (S)- or (R)-2-(dimethylamino)-N-{1,2-dimethyl-1-[4-(pentafluoro-λ^6-sulfanyl)phenyl]propyl}-6-oxo-1,6-dihydropyrimidine-4-carboxamide]	–	0.8	6.5 nM	3.6	–	–	6.6 nM
COCC1CCN(c2nc(C(=O)N[C@@H](c3ccc(C(F)(F)F)cc3)C(C)(C)C)cc(=O)[nH]2)C1 (single isomer, unassigned) [Example 176, (R)- or (S)-N-{(1R)-2,2-dimethyl-1-[4-(trifluoromethyl)phenyl]propyl}-2-[3-(methoxy-methyl)pyrrolidin-1-yl]-6-oxo-1,6-dihydro-pyrimidine-4-carboxamide]	–	5.4	0.38 nM	19.1	–	–	–
O=C(NC1(c2ccc(C(F)(F)F)c(F)c2)CC1)c1cc(=O)[nH]c(N2CCCC2)n1 [Example 1, N-(1-(3-fluoro-4-(trifluoromethyl)phenyl)cyclopropyl)-6-oxo-2-(pyrrolidin-1-yl)-1,6-dihydropyrimidine-4-carboxamide]	–	0.8	–	7.2	1.3 nM	0.48 nM	–
CN(C)c1nc(C(=O)N[C@@H](c2ccc(C(F)(F)F)cc2)C(C)(C)C)cc(=O)[nH]1 [Example 2, (R)—N-(2,2-dimethyl-1-(4-(trifluoromethyl)phenyl)propyl)-2-(dimethylamino)-6-oxo-1,6-dihydropyrimidine-4-carboxamide]	–	0.6	0.15 nM	2.6	–	–	0.11 nM
C[C@@H](NC(=O)c1cc(=O)[nH]c(N2CCCC2)n1)c1ccc(C(F)(F)F)cc1 [Example 6, (R)-6-oxo-2-(pyrrolidin-1-yl)-N-(1-(4-(trifluoromethyl)phenyl)ethyl)-1,6-dihydropyrimidine-4-carboxamide]	–	0.5	–	3.2	2.5 nM	1.7 nM	–
CN(C)c1nc(C(=O)N[C@@H](c2ccc(OC(F)F)cc2)C2CC2)cc(=O)[nH]1 [Example 32, N-{(R)-cyclopropyl[4-(difluoromethoxy)phenyl]methyl}-2-(dimethylamino)-6-oxo-1,6-dropyrimidine-4-carboxamide]	6.4 nM	1.1	5.3 nM	–	–	–	–
CC(C)[C@@H](NC(=O)c1cc(=O)[nH]c(N(C)C)n1)c1ccc(OC(F)F)cc1 [Example 33, N-{(1R)-1-[4-(difluoromethoxy)phenyl]-2-methylpropyl}-2-(dimethylamino)-6-oxo-1,6-dihydropyrimidine-4-carboxamide]	2.7 nM	1.3	2 nM	–	–	–	–
CN(C)c1nc(C(=O)N[C@@H](c2ccc(S(F)(F)(F)(F)F)cc2)C(C)(C)C)cc(=O)[nH]1 [Example 38, 2-(dimethylamino)-N-{(1R)-2,2-dimethyl-1-[4-(pentafluoro-λ^6-sulfanyl)phenyl]propyl}-6-oxo-1,6-dihydropyrimidine-4-carboxamide]	0.11 nM	1	0.14 nM	–	–	–	–
CC(C)[C@@H](NC(=O)c1cc(=O)[nH]c(N(C)C)n1)c1ccc(C(F)F)cc1 [Example 63, N-{(1R)-1-[4-(difluoromethyl)phenyl]-2-methylpropyl}-2-(dimethylamino)-6-oxo-1,6-dihydropyrimidine-4-carboxamide]	–	1.7	1.9 nM	10.2	–	–	–
CN(C)c1nc(C(=O)N[C@@H](c2ccc(C(F)F)cc2)C2CC2)cc(=O)[nH]1 [Example 64, N-{(R)-cyclopropyl[4-(difluoromethyl)phenyl]methyl}-2-(dimethylamino)-6-oxo-1,6-dihydropyrimidine-4-carboxamide]	–	0.8	7.4 nM	5.6	–	–	–
CN(C)c1nc(C(=O)N[C@@H](c2ccc(C(F)F)c(F)c2)C2CC2)cc(=O)[nH]1 [Example 66, N-{(R)-cyclopropyl[4-(difluoromethyl)-3-fluorophenyl]methyl}-2-(dimethylamino)-6-oxo-1,6-dihydropyrimidine-4-carboxamide]	–	0.8	5 nM	6.1	–	–	–
CN(C)c1nc(C(=O)N[C@@H](c2ccc(C3CC3)cc2)C2CC2)cc(=O)[nH]1 [Example 115, N-[(R)-cyclopropyl(4-cyclopropylphenyl)methyl]-2-(dimethylamino)-6-oxo-1,6-dihydropyrimidine-4-carboxamide]	1 nM	0.3	0.76 nM	–	–	–	–
CC(C)(C)[C@@H](NC(=O)c1cc(=O)[nH]c(N)n1)c1ccc(C(F)(F)F)cc1 [Example 157, 2-amino-N-{(1R)-2,2-dimethyl-1-[4-(trifluoromethyl)phenyl]propyl}-6-oxo-1,6-dihydropyrimidine-4-carboxamide]	–	13.9	6.3 nM	34	–	–	–
CO[C@@H]1CCN(c2nc(C(=O)N[C@@H](c3ccc(C(F)(F)F)cc3)C(C)(C)C)cc(=O)[nH]2)C1 [Example 171, N-{(1R)-2,2-dimethyl-1-[4-(trifluoromethyl)phenyl]propyl}-2-[(3R)-3-methoxypyrrolidin-1-yl]-6-oxo-1,6-dihydropyrimidine-4-carboxamide]	–	3.1	1.4 nM	24.4	–	–	–

The remaining compounds from weak to strong by Ki (human PDE2A1; [3]), led by results:

Ki (Rhesus PDE2A3; [2])	efflux ratio at 1 μM (P-glycoprotein (P-gp))	Ki (human PDE2A1; [3])	efflux ratio at 1 μM [1]	Ki (Rhesus PDE2A3; [5])	Ki (human PDE2A1; [6])	Structure (SMILES)	Ki (Rhesus PDE2A3; [4])
–	0.8	2 nM	4.2	–	–	CN(C)c1nc(C(=O)N[C@@H](c2ccc(C(F)F)c(F)c2)C2(C)CC2)cc(=O)[nH]1 [Example 59, N-[(R)-[4-(difluoromethyl)-3-fluorophenyl](1-methylcyclopropyl)methyl]-2-(dimethylamino)-6-oxo-1,6-dihydropyrimidine-4-carboxamide]	–
1.8 nM	27.3	1.9 nM	47.2	–	–	CN(C)c1nc(C(=O)NC(c2ccc(SC(F)(F)F)c(F)c2)C2(C)CC2)cc(=O)[nH]1 (single isomer, unassigned) [Example 120, (R)- or (S)-2-(dimethylamino)-N-[{3-fluoro-4-[(trifluoromethyl)sulfanyl]phenyl}(1-methylcyclopropyl)methyl]-6-oxo-1,6-dihydropyrimidine-4-carboxamide]	–
1.5 nM	0.5	1.3 nM	3.6	0.69 nM	–	CC[C@@H](NC(=O)c1cc(=O)[nH]c(N(C)C)n1)c1ccc(S(F)(F)(F)(F)F)cc1 [Example 5, (R)-2-(dimethylamino)-6-oxo-N-(1-(4-(pentafluoro-λ^6-sulfanyl)phenyl)propyl)-1,6-dihydropyrimidine-4-carboxamide]	–
1.2 nM	0.6	1 nM	3.1	–	–	CN(C)c1nc(C(=O)N[C@@H](c2ccc(S(F)(F)(F)(F)F)cc2)C2CC2)cc(=O)[nH]1 [Example 4, (R)—N-(cyclopropyl(4-(pentafluoro-λ^6-sulfanyl)phenyl)methyl)-2-(dimethylamino)-6-oxo-1,6-dihydropyrimidine-4-carboxamide]	–
–	7.8	0.85 nM	24.4	–	–	CNc1nc(C(=O)N[C@@H](c2ccc(C(F)(F)F)cc2)C(C)(C)C)cc(=O)[nH]1 [Example 158, N-{(1R)-2,2-dimethyl-1-[4-(trifluoromethyl)phenyl]propyl}-2-(methylamino)-6-oxo-1,6-dihydropyrimidine-4-carboxamide]	–
0.22 nM	1.4	0.15 nM	4.8	–	–	CN(C)c1nc(C(=O)NC(c2ccc(S(F)(F)(F)(F)F)cc2F)C(C)(C)C)cc(=O)[nH]1 (single isomer, unassigned) [Example 128, (R)- or (S)-2-(dimethylamino)-N-{1-[2-fluoro-4-(pentafluoro-λ^6-sulfanyl)phenyl]-2,2-dimethylpropyl}-6-oxo-1,6-dihydropyrimidine-4-carboxamide]	–
–	5.6	0.11 nM	10.7	–	–	CO[C@H]1CCN(c2nc(C(=O)N[C@@H](c3ccc(C(F)(F)F)cc3)C(C)(C)C)cc(=O)[nH]2)C1 [Example 170, N-{(1R)-2,2-dimethyl-1-[4-(trifluoromethyl)phenyl]propyl}-2-[(3S)-3-methoxypyrrolidin-1-yl]-6-oxo-1,6-dihydropyrimidine-4-carboxamide]	–

— patent US10285989B2, “Pyrimidinone amide compounds as PDE2 inhibitors” (Merck Sharp & Dohme Corp., priority 2015, dated 2019)
